Test system: 521955-158-R2-J5-PDC complex spheroid viability
Assay: Anticancer human tumor 521955-158-R2-J5-PDC patient-derived pancreatic carcinoma cell line growth inhibition [GQUAD]
Details: for IC50: curve of first compound; for viability, T/C: stronger effect = lower value; active = viability on the fitted dose curve at most 10% of control; inactive = the rest
Source text: DNA G-quadruplex Stabilizer Agents in Combinations in Complex Spheroids
A high-throughput screen of multi-cell type tumor spheroids was designed to identify active combinations of DNA G-quadruplex stabilizer agents and targeted small molecules. Complex spheroids include a stromal component modeled by human endothelial cells (HUVEC) and fibroblasts modeled by human mesenchymal stem cells (MSCs). The concentration ranges selected for each drug and investigational agent were based upon clinically achievable concentrations if the clinical Cmax of the agent was known.
Compounds. The drugs and investigational agents: pidnarulex (CX-5461; NSC782164), APTO-253 (NSC789042), BRACO-19 (NSC847499), peposertib (NSC802822), ceralasertib (NSC780249), elimusertib (NSC800525), camonsertib (NSC841442), AZD-1390 (NSC803789), olaparib (NSC753686), talazoparib (NSC767125), ART-558 (NSC835418), sotorasib (NSC818433), MRTX-1133 (NSC836407), SN-38 (NSC673596), topotecan (NSC609699), etoposide (NSC141540), doxorubicin (NSC123127), gemcitabine (NSC613327), 5-fluorouracil (NSC19893), paclitaxel (NSC125973), vemurafenib (NSC761431), panobinostat (NSC761190), R-306465 (JNJ-16241199; NSC773264), adavosertib (NSC754352), TP-3654 (NSC805149), carboplatin (NSC241240), KSQ-4279 (NSC840948), and staurosporine (NSC755774) were obtained from the National Cancer Institute (NCI) Developmental Therapeutics Program Chemical Repository (34). The FDA-approved anticancer drug set is available from the NCI Developmental Therapeutics Program. […] The stock solutions were prepared in dimethyl sulfoxide (DMSO, Sigma-Aldrich, St. Louis, MO, cat. D2650) at 800-fold the tested concentration and stored at -70 degrees C prior to their use. All drugs and investigational agents were tested over a range starting from a high concentration at or near the clinical Cmax and decreasing in half-log increments. If the clinical Cmax for an agent had not been determined, the highest concentration tested was 10 microM.
2.3 Cell Culture. All cells were maintained in an incubator at 37 degrees C and 5% CO2 with 95% humidity. The PDC lines were cultured according to standard operating procedures established by the NCI PDMR. All PDCs were thawed and cultured in Matrigel-coated flasks prepared with a working solution of 1X Ham's F-12 nutrient mix, without supplementation (Invitrogen, cat. 11765054), 100 U/mL penicillin-streptomycin (Invitrogen, cat. 15140122), and 2.5% Matrigel (Corning Inc., cat. 354248) for the first three passages. The 857933-349-R-J2-PDC line was cultured in 6C/Colon 1B media, which includes advanced DMEM/F-12 (Thermo Fisher Scientific, cat. 12634028), 10 mM HEPES (Thermo Fisher Scientific, cat. 15630080), 1X GlutaMAX supplement (Thermo Fisher Scientific, cat. 35050061), 0.1 mg/mL primocin (InvivoGen, cat. ant-pm-2), 10% defined fetal bovine serum, heat inactivated (HyClone Laboratories Inc., cat. SH30070.03HI), 50% L-WRN conditioned media (ATCC, cat. CRL-3276), 1.25 mM N-Acetyl-L-cysteine (Sigma-Aldrich, cat. A9165), 10 mM nicotinamide (Sigma-Aldrich, cat. N0636), 1X B-27 supplement (Thermo Fisher Scientific, cat. 17504044), 1X N-2 supplement (Thermo Fisher Scientific, cat. 17502048), 10 microM Y-27632 dihydrochloride (Tocris Bioscience, cat. 1254), and 50 ng/mL human EGF recombinant protein (Thermo Fisher Scientific, cat. PHG0311). The 485176-168-R4-J1-PDC line was cultured in Panc media, which includes all 6C/Colon 1B media components plus 100 ng/mL human FGF-10 (Thermo Fisher Scientific, cat. 100-26), 500 nM SB-431542 (Selleckchem, cat. S1067), and gastrin (Tocris, cat. 3006).
[…]
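Note: spheroids exposed to agents for one week before reading.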

COc1ccc([C@@H](O)c2cc(-c3ncnc4cc(N5CCOCC5)ccc34)c(F)cc2Cl)nn1 + CN(C)c1ccc(Nc2c3ccc(NC(=O)CCN4CCCC4)cc3nc3cc(NC(=O)CCN4CCCC4)ccc23)cc1
2.5 µM: IC50 (second compound 3.16 µM)
inactive: viability, T/C (second compound 0.0316 µM, first compound 0.0316 µM) 91.8% | viability, T/C (second compound 0.0316 µM, first compound 0.1 µM) 107% | viability, T/C (second compound 0.0316 µM, first compound 0.316 µM) 91.8% | viability, T/C (second compound 0.0316 µM, first compound 1 µM) 78.9% | viability, T/C (second compound 0.0316 µM, first compound 3.16 µM) 68.3% | viability, T/C (second compound 0.0316 µM, first compound 10 µM) 43.3% | viability, T/C (second compound 0.1 µM, first compound 0.0316 µM) 94.2% | viability, T/C (second compound 0.1 µM, first compound 0.1 µM) 96.8% | viability, T/C (second compound 0.1 µM, first compound 0.316 µM) 92.3% | viability, T/C (second compound 0.1 µM, first compound 1 µM) 83.9% | viability, T/C (second compound 0.1 µM, first compound 3.16 µM) 60% | viability, T/C (second compound 0.1 µM, first compound 10 µM) 39.9% | viability, T/C (second compound 0.316 µM, first compound 0.0316 µM) 88.9% | viability, T/C (second compound 0.316 µM, first compound 0.1 µM) 105% | viability, T/C (second compound 0.316 µM, first compound 0.316 µM) 106% | viability, T/C (second compound 0.316 µM, first compound 1 µM) 77.8% | viability, T/C (second compound 0.316 µM, first compound 3.16 µM) 66.5% | viability, T/C (second compound 0.316 µM, first compound 10 µM) 41% | viability, T/C (second compound 1 µM, first compound 0.0316 µM) 87.4% | viability, T/C (second compound 1 µM, first compound 0.1 µM) 101% | viability, T/C (second compound 1 µM, first compound 0.316 µM) 83% | viability, T/C (second compound 1 µM, first compound 1 µM) 72.4% | viability, T/C (second compound 1 µM, first compound 3.16 µM) 59.2% | viability, T/C (second compound 1 µM, first compound 10 µM) 41.5% | viability, T/C (second compound 3.16 µM, first compound 0.0316 µM) 66.4% | viability, T/C (second compound 3.16 µM, first compound 0.1 µM) 83.1% | viability, T/C (second compound 3.16 µM, first compound 0.316 µM) 74.9% | viability, T/C (second compound 3.16 µM, first compound 1 µM) 73.7% | viability, T/C (second compound 3.16 µM, first compound 3.16 µM) 44% | viability, T/C (second compound 3.16 µM, first compound 10 µM) 28.8% | viability, T/C (second compound 10 µM, first compound 0.0316 µM) 59.8% | viability, T/C (second compound 10 µM, first compound 0.1 µM) 55.6% | viability, T/C (second compound 10 µM, first compound 0.316 µM) 71.3% | viability, T/C (second compound 10 µM, first compound 1 µM) 54.9% | viability, T/C (second compound 10 µM, first compound 3.16 µM) 45.1% | viability, T/C (second compound 10 µM, first compound 10 µM) 16.7%
2 µM: IC50 (second compound 10 µM)
6.45 µM: IC50 (second compound 0.316 µM)
7.26 µM: IC50 (second compound 0.0316 µM)
5.52 µM: IC50 (second compound 1 µM)
5.61 µM: IC50 (second compound 0.1 µM)

Reference: PubChem BioAssay AID2060495 (Molecular Pharmacology Branch, DTP, NCI, 2025)
